Experiment [1] concerns the target T1, CB1 receptor (Homo sapiens, UniProt P21554). It counts as cell-based. The note with it: data not shown.
The target in experiment [2] is T1, CB1 receptor. It counts as binding. The note with it: data not shown.
The target of experiment [3] is T1, CB1 receptor. The experiment is described as follows: GTP-γ-S assay of compounds 3 and 4, preparation not stated, data not shown. It counts as biochemical.
Experiment [4] has as its target T1, CB1 receptor. The experiment is described as follows: Competitive displacement binding vs [3H]CP55,940 in hCB1 membranes. The note with it: both radioligands.
In experiment [5] the target is human CB2 receptor (Homo sapiens, UniProt P34972). The experiment is described as follows: Competitive displacement binding vs [3H]CP55,940 in hCB2 membranes. The following applies: read-out: Displacement vs. 3H-CP55,940: Ki (nM) in hCB2; Table 2.
Chain of human CB2 receptor (P34972 whole entry): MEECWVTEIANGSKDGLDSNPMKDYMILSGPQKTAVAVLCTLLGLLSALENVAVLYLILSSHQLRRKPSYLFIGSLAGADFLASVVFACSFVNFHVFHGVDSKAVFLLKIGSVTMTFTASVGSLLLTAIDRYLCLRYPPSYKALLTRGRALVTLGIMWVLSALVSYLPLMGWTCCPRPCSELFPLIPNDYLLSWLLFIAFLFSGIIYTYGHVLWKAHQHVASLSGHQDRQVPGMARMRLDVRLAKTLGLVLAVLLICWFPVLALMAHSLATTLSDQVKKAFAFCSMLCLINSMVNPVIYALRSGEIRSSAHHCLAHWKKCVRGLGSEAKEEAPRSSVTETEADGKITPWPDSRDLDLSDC

T1 sequence (P21554 whole entry): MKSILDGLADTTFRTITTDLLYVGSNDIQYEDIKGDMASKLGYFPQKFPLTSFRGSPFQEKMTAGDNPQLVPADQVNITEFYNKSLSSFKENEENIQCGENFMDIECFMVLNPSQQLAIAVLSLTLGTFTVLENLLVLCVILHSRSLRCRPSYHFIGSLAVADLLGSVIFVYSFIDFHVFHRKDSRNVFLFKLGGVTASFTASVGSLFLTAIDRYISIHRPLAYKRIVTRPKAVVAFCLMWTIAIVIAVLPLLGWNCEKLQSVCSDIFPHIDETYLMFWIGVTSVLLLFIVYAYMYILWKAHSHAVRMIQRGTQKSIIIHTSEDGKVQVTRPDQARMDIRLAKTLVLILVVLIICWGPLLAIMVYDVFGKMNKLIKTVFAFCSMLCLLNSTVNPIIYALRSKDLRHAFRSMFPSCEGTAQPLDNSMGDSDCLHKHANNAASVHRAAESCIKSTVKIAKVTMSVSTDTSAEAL

As for `Cc1c(C(=O)NCCOCCOCCOCCNC(=O)c2nn(-c3ccc(Cl)cc3Cl)c(-c3ccc(Cl)cc3)c2C)nn(-c2ccc(Cl)cc2Cl)c1-c1ccc(Cl)cc1` [Compound 3, 5-(4-chlorophenyl)-N-{13-[5-(4-chlorophenyl)-1-(2,4-dichlorophenyl)-4-methyl-1H-pyrazol-3-yl]-13-oxo-3,6,9-trioxa-12-azatridec-1-yl}-1-(2,4-dichlorophenyl)-4-methyl-1H-pyrazole-3-carboxamide], the “Activity in calcium assay” value in experiment [1] was “inactive”. For the same molecule, the “Affinity in radiolabeled binding” value in experiment [2] was “low affinity”. In addition, in experiment [3], the “Activity in GTP-γ-S assay” value is “inactive”.

On to `Cc1c(C(=O)NCC(=O)NCC(=O)NCCN)nn(-c2ccc(Cl)cc2Cl)c1-c1ccc(Cl)cc1` [Compound 4, N-{[5-(4-chlorophenyl)-1-(2,4-dichlorophenyl)-4-methyl-1H-pyrazol-3-yl]carbonyl}glycyl-N-(2-aminoethyl)glycinamide], for which the “Activity in calcium assay” value in experiment [1] was “inactive”. Also, in experiment [2], the “Affinity in radiolabeled binding” value is recorded as “low affinity”. In addition, in experiment [3], the “Activity in GTP-γ-S assay” value is “inactive”. On to `Cc1c(C(=O)NCCCCCCCNCCCCCCCNC(=O)c2nn(-c3ccc(Cl)cc3Cl)c(-c3ccc(Cl)cc3)c2C)nn(-c2ccc(Cl)cc2Cl)c1-c1ccc(Cl)cc1` [Compound 5d, N,N′-(iminodiheptane-7,1-diyl)bis[5-(4-chlorophenyl)-1-(2,4-dichlorophenyl)-4-methyl-1H-pyrazole-3-carboxamide]], for which the “Affinity higher than the corresponding monovalent control (7d)” value in experiment [4] was approximately 4 fold. With `Cc1c(C(=O)NCCCCCCCCCN(C)CCCCCCCCCNC(=O)c2nn(-c3ccc(Cl)cc3Cl)c(-c3ccc(Cl)cc3)c2C)nn(-c2ccc(Cl)cc2Cl)c1-c1ccc(Cl)cc1` [Compound 6c, N,N′-[(methylimino)dinonane-9,1-diyl]bis[5-(4-chlorophenyl)-1-(2,4-dichlorophenyl)-4-methyl-1H-pyrazole-3-carboxamide]], the Ki in experiment [5] is more than 2500 nM.

As for `Cc1c(C(=O)NCCCCCCCCCCCN(C)CCCCCCCCCCCNC(=O)c2nn(-c3ccc(Cl)cc3Cl)c(-c3ccc(Cl)cc3)c2C)nn(-c2ccc(Cl)cc2Cl)c1-c1ccc(Cl)cc1` [Compound 6d, N,N′-[(methylimino)diundecane-11,1-diyl]bis[5-(4-chlorophenyl)-1-(2,4-dichlorophenyl)-4-methyl-1H-pyrazole-3-carboxamide]], in experiment [5], the Ki was more than 2500 nM.

`Cc1c(C(=O)NCCCCCN(C)CCCCCN)nn(-c2ccc(Cl)cc2Cl)c1-c1ccc(Cl)cc1` [Compound 8a, N-{5-[(5-aminopentyl)(methyl)amino]pentyl}-5-(4-chlorophenyl)-1-(2,4-dichlorophenyl)-4-methyl-1H-pyrazole-3-carboxamide]: in experiment [5], the Ki is more than 2500 nM.

For the origin of these results see paper PMC3076737 (Journal of medicinal chemistry, 2010).
